Laboratory results as given in patent US12440451B2, “Compositions and methods using an epigenetic inhibitor” (DANA-FARBER CANCER INSTITUTE, INC., priority 2017, dated 2025).

Columns and labels:
OT-I+ CD8+ T cells = test: in vitro CD8+ T cell activation assay with SIINFEKL-pulsed BMDCs, flow cytometry for effector markers; format: cell-based, mouse
Excerpt: To screen for compounds that may inhibit epigenetic enzymes, an in vitro model of T cell activation by antigen-loaded antigen presenting cells (APCs) was used. CD8^+ T cells were harvested from OT-I T cell receptor transgenic mice. OT-I mice are transgenic for the mouse Tera-V2 and Torb-V5 genes, which form a T cell receptor that recognizes the SIINFEKL peptide (SEQ ID NO: 1) epitope of chicken ovalbumin presented in the context of the Kb MHC I molecule. This allows testing of T cell activation in response to addition of SIINFEKL peptide (SEQ ID NO: 1). The APCs used for T cell activation were bone marrow-derived dendritic cells (BMDCs) harvested from congenic H-2b-MHC haplotype C57BL/6 (B6) mice.
To set up the screen, BMDCs were harvested, irradiated, and seeded into 96-well tissue culture plates (5×10^4/well) in the presence of 200 nM SIINFEKL peptide (SEQ ID NO: 1) for antigen loading. OT-I^+ CD8^+ T cells were freshly isolated from peripheral lymphoid organs of OT-I mice and added to the BMDCs in 96-well plates (5×10^4/well). One hundred epigenetic inhibitor drugs from a custom library provided by Dr. David Fisher (Massachusetts General Hospital, Boston, MA) were added separately to individual wells for a final concentration of 10 μM or 1 μM. Negative (non-drug treated) wells were given an equivalent volume of DMSO vehicle.
The OT-I^+ CD8^+ T cells were cultured for 10 days at 37° C., with media changes at days 3, 5, and 7. After 10 days, T cells were collected from the 96-well plates and analyzed by flow cytometry for markers of cell viability, effector differentiation, cytokine secretion, and cytotoxicity.
For each marker assessed, a change of greater than two standard deviations from the mean of the negative control wells was deemed a significant change.
To validate the phenotypic changes observed with RGFP966 treatment during the screen, the in vitro activation assay was repeated to compare T cells treated with RGFP966 with vehicle-treated control cells. OT-I^+ CD8^+ T cells were activated with SIINFEKL-pulsed BMDCs as in Example 1 for 7 days, with media changes at days 3 and 5. T cells were then collected and analyzed by flow cytometry for markers of effector differentiation (CD25, PD-1), cytokine secretion (IFN-γ, TNF-α, IL-2), and cytotoxicity (granzyme B).
An additional study was done on the effects of RGFP966 on T cell expression of phenotypic markers of CD8^+ effector differentiation. T cells were treated with RGFP966 and vehicle using the in vitro activation assay and flow cytometry techniques described above. OT-I^+ CD8^+ T cells were activated with SIINFEKL-pulsed BMDCs (see above) for 7 days, with media changes at days 3 and 5. T cells were collected and analyzed by flow cytometry for markers of effector differentiation (CD25, PD-1), cytokine secretion (IFN-γ, TNF-α, IL-2), and cytotoxicity (granzyme B).
OT-I^+ CD8^+ T cells were activated with antigen-pulsed BMDCs as described above, and dosed with RGFP966 for different durations of time as depicted in the schematic diagram of FIG. 7A: dose duration A of RGFP966 exposure was from day 0 to day 7 of co-culture: dose duration B of RGFP966 exposure was from day 3 to day 7 of co-culture: dose duration C of RGFP966 exposure was from day 5 to day 7 of co-culture: dose duration D of RGFP966 exposure was from day 0 to day 3 of co-culture: dose duration E of RGFP966 exposure was from day 0 to day 5 of co-culture. These time windows (dose durations A-E) correspond roughly to the early (day 0 to 3), mid-(day 3 to 5), and late (day 5 to 7) phases of T cell activation described in the literature.
T cells were thoroughly washed with culture media during media changes at a transition point (i.e. drug to no drug or vice versa). T cells in samples D and E (light gray arrows) were re-suspended in conditioned media from parallel cultures of DMSO vehicle-treated T cells in order to maintain similar levels of T cell activating cytokines in the media. […]

[1] = tested on: H3K9-Ac and H3K27-Ac in CD8+ T cells; test: ChIP-qPCR for H3K9ac and H3K27ac at promoter regions of 32 effector function genes; format: cell-based, mouse; conditions: 3 μM, 5 days
Method: Chromatin was extracted from sorted CD8^+ T cells activated with or without RGFP966 for 5 days as described in FIG. 1 and Example 1 above, and chromatin immunoprecipitation (ChIP) was performed for H3K9ac and H3K27 markers.
Immunoprecipitated chromatin was analyzed using quantitative real-time PCR (qPCR) with primer probes for the promoter regions of a custom set of 32 genes known to be associated with various aspects of CD8^+ T cell effector function (effector cytokines, cytotoxicity, regulatory transcription factors, as well as positive and negative controls for data quality control). […] Histogram bars are presented in pairs for each marker, with the left hand bar of each pair (gray) representing data from untreated CD8^+ T cells and the right hand bar of each pair (black) representing data from CD8^+ T cells treated with 3 μM RGF966.

[2] = 10 μM, 7 days activation, relative to DMSO-treated cells

## Nc1cc(F)ccc1NC(=O)/C=C/c1cnn(C/C=C/c2ccccc2)c1 [RGFP966]
OT-I+ CD8+ T cells; 10 μM compared with 1 μM or vehicle, FIG. 2J
  TNF-α expression measured in pg/mL: increased expression of the activation marker TNF-α
OT-I+ CD8+ T cells; [2]
  CD25 expression: higher levels
  IFN-γ expression: higher levels
  IL-2 expression: higher levels
  PD-1 expression: higher levels
  TNF-α expression: higher levels
  granzyme B expression: more of the cytotoxic effector protein granzyme B
OT-I+ CD8+ T cells; 10 μM, exposure day 0 to 3 or day 0 to 5, relative to all 7 days
  expression of CD25 and TNF-α when the drug is washed out midway: did not reduce the expression of CD25 and TNF-α
OT-I+ CD8+ T cells; 10 μM, exposure from day 3 or day 5 to day 7
  expression of markers of T cell activation (CD25, TNF-α) when dosing starts at later time points: reduce the expression of markers of T cell activation
OT-I+ CD8+ T cells; 10 μM, flow cytometry, FIG. 2A, vs vehicle
  expression of CD44 and CD62L: high expression of CD62L and intermediate to high expression of CD44
OT-I+ CD8+ T cells; 10 μM, flow cytometry, FIG. 2B, vs vehicle
  CD107a positive cells: many more CD107a positive cells than the vehicle controls
OT-I+ CD8+ T cells; 10 μM, flow cytometry, FIG. 2C, vs untreated
  TNF-α positive cells: larger number of TNF-α positive cells than the untreated T cells
OT-I+ CD8+ T cells; 10 μM, screen of HDAC inhibitors
  effector phenotype of CD8+ T cells in the secondary screen: consistently augmented the effector phenotype
OT-I+ CD8+ T cells; in vitro activation, titration 0, 1, 3, 5 μM
  dose sufficient to augment the effector phenotype of CD8+ T cells: 3 µM
OT-I+ CD8+ T cells; titration 0, 1, 3, 5 μM, 7 days
  dose at which the dose-dependent augmentation of the T cell effector phenotype begins: greater than 1 μM
OT-I+ CD8+ T cells; with increasing drug dose, titration 0, 1, 3, 5 μM
  percentage of actively proliferating cells measured by Ki-67 expression: reduction in the percentage of actively proliferating cells
[1]
  histone acetylation at GZMB, FASL, TBX21, PRDM1 and ID2: most significant changes in histone acetylation
[1]; not always significant
  H3K9 and H3K27 acetylation at promoters of IFN-γ, TNF-α and IL-2: generally had increased H3K9 and H3K27 acetylation
